Results published in ChEMBL document CHEMBL1201862, “PubChem BioAssay data set” (2004).
Activity calls are given as the source filed them.

What was measured:
[1] = system: Vero; assay: Vero cell toxicity, dose response, cytotoxicity control, plate reader, cherry-pick samples (AID 687020); assay type: functional, cell-based; conditions: Chlorocebus sabaeus
[2] = cells; assay type: functional
[3] = biological target: T1, Methionyl-tRNA synthetase, putative (Trypanosoma brucei brucei, UniProt Q38C91); assay type: functional, Trypanosoma brucei brucei strain 927/4 GUTat10.1
T1 sequence (Q38C91 whole entry): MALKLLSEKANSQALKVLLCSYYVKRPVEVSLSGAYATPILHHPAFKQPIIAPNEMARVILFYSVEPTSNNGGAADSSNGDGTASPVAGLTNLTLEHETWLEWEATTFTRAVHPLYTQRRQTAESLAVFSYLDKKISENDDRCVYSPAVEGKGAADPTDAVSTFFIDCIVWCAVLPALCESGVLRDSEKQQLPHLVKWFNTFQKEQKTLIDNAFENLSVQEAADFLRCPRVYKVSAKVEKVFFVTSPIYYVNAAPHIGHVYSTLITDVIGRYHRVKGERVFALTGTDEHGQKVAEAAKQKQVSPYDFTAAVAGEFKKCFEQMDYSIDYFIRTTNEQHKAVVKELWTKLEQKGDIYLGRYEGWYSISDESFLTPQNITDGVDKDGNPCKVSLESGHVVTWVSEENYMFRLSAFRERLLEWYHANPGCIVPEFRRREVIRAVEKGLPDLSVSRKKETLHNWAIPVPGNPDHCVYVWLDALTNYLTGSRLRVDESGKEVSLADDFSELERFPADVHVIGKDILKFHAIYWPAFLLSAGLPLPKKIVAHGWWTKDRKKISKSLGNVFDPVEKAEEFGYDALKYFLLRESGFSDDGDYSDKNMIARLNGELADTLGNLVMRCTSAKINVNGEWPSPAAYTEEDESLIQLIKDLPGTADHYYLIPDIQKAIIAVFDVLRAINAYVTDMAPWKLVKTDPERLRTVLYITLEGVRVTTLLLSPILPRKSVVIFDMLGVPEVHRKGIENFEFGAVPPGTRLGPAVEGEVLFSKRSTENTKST

[4] = Counterscreen for inhibitors of Trypanosoma brucei methionyl tRNA synthetase (MetRS): Luminescence-based cell-based high throughput dose response assay to identify compounds that are cytotoxic to Jurkat human T lymphocyte cells.; assay type: functional
[5] = biological target: T1, Methionyl-tRNA synthetase, putative; assay type: functional, Trypanosoma brucei brucei strain 927/4 GUTat10.1; remark: listed apart in the source
[6] = NIH-3T3 fibroblast cytotoxicity, dose response, cytotoxicity control, cell-based, fluorescence, Alamar Blue, secondary assay (AID 2327); assay type: functional;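 note: NIH-3T3 mouse fibroblasts cultured with fluconazole at 8 µg/mL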
[7] = biological target: T2, Heat shock factor protein 1 (Mus musculus, UniProt P38532); assay: inhibition of MG132-induced HSE-luciferase signal, confirmation, cell-based, NIH3T3, luminescence, dose retest (AID 2382); assay type: functional;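 note: NIH3T3 fibroblasts with HSF1-driven luciferase reporter stressed by proteasome inhibitor MG132; luminescence from HSF1-driven luciferase expression after 8 hours of MG132 stress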
T2 sequence (P38532 whole entry): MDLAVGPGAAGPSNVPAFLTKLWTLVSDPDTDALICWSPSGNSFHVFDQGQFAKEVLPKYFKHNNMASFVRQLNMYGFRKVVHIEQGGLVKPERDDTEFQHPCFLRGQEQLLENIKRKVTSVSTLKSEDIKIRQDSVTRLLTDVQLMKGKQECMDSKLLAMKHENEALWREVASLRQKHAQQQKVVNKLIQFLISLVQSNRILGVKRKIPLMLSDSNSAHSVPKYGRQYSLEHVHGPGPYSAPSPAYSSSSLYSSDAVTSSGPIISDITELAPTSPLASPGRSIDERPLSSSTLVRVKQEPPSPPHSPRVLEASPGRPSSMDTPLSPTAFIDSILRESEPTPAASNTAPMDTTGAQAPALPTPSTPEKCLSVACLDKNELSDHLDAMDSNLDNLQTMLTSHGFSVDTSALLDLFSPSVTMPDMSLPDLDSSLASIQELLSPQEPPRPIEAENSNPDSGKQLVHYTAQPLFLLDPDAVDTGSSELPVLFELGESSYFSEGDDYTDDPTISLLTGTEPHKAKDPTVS

[8] = C. albicans growth with fluconazole, confirmation, fluorescence, retest (AID 2467); assay type: functional, cell-based
[9] = system: INS1; assay: beta cell apoptosis inhibitors, cytokine rescue, dose response, luminescence, retest (AID 449756); assay type: functional, cell-based; conditions: Rattus norvegicus;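 note: cell death triggered by IL-1 beta plus TNF-alpha plus IFN-gamma mixture; protective hits raise ATP signal compared with cytokine alone wells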
[10] = biological target: SWI/SNF-related matrix-associated actin-dependent regulator of chromatin subfamily A member 2 (Homo sapiens, UniProt P51531); assay: Luminescence-based cell-based high throughput dose response assay to identify activators of the function of SWI/SNF related, matrix associated, actin dependent regulator of chromatin, subfamily a, member 2 (SMARCA2, BRM).; assay type: functional
Sequence of SWI/SNF-related matrix-associated actin-dependent regulator of chromatin subfamily A member 2 (P51531 whole entry): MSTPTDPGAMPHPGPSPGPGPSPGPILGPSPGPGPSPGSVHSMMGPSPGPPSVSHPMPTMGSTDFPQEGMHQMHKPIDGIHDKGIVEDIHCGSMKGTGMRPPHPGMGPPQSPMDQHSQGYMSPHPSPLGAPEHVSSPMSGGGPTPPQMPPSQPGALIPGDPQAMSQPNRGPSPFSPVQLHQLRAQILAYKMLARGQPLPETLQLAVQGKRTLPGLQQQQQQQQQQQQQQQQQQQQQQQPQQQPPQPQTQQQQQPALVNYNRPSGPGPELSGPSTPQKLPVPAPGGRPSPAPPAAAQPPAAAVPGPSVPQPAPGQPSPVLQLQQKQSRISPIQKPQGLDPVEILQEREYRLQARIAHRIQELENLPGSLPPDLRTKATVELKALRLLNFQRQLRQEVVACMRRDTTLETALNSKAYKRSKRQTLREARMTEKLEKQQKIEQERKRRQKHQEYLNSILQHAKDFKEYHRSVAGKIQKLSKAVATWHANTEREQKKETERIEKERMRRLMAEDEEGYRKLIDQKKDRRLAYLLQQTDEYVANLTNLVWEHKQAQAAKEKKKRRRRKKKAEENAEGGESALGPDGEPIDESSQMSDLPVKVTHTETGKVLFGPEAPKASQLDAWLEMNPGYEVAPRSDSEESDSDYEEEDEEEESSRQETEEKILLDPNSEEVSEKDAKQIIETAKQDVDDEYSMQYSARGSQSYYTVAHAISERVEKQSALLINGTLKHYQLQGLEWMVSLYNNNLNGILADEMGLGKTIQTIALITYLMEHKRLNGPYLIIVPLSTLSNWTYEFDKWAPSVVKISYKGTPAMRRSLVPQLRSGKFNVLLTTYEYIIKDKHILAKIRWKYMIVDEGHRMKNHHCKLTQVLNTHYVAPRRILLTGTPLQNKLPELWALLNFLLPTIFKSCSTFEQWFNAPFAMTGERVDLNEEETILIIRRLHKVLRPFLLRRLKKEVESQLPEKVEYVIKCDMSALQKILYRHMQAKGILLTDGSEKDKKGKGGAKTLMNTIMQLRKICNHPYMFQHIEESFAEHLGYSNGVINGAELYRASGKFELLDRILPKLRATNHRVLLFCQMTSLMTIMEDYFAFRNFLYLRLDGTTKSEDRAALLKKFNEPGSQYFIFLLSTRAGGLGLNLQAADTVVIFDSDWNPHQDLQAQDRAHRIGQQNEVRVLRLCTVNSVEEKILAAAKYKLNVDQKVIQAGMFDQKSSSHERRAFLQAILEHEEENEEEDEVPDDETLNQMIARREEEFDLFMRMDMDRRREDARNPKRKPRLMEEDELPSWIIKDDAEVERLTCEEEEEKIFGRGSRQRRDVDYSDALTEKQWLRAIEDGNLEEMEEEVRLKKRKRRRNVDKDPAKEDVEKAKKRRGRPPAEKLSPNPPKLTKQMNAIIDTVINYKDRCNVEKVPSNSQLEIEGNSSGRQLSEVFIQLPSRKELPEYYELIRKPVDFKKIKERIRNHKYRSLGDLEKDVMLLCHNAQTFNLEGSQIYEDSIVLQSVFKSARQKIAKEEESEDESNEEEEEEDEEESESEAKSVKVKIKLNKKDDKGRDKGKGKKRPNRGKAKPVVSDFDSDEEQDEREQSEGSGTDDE

[11] = Counterscreen for activators of the function of SWI/SNF related, matrix associated, actin dependent regulator of chromatin, subfamily a, member 2 (SMARCA2, BRM): Luminescence-based cell-based high throughput dose response assay to identify non-selective compounds using the VP16 reporter assay.; assay type: functional
[12] = inhibitors of HIV Env-driven cell fusion, dose response, cherry-pick (AID 652057); assay type: functional, cell-based
[13] = CEM21 lymphoblast cell cytotoxicity, dose response, cytotoxicity control for viral fusion inhibitor project, CellTiter-Glo luminescence, cherry-picked (AID 652042); assay type: functional, cell-based;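 note: potency for signal decrease meaning cytotoxicity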
[14] = off-target signal loss in HeLa-CEM21 co-culture – HeLa F-luc CTL cells, cherry-picked, counter-screen for HIV-1 Env fusion inhibitor project, dose response (AID 652040); assay type: functional, cell-based;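 note: potency for signal decrease marking cytotoxic or nonspecific inhibition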
[15] = biological target: Photoreceptor-specific nuclear receptor (Homo sapiens, UniProt Q9Y5X4); assay type: functional, cell-based;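 note: CHO-S cells with Gal4-NCOR and VP16-NR2E3 two-hybrid luciferase reporter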
Sequence of Photoreceptor-specific nuclear receptor (Q9Y5X4 whole entry, the tested form may be a part): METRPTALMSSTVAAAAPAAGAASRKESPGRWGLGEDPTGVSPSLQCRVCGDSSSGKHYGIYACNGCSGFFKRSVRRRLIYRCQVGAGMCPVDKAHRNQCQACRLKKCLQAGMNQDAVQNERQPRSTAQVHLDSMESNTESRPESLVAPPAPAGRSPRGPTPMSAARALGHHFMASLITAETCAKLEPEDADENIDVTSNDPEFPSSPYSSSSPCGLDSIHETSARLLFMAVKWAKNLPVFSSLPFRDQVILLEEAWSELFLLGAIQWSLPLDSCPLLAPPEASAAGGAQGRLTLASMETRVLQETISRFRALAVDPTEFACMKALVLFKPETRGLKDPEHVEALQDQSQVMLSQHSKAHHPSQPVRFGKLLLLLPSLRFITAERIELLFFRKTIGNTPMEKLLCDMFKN

[16] = system: Streptococcus sp. 'group A'; assay: growth inhibition of control SK(-) GAS strain, dose response, counter-screen for streptokinase expression inhibitor project, luminescence, kanamycin, BacTiterGlo, confirmation (AID 1900); assay type: functional, organism-based
[17] = system: Streptococcus; assay: Group A Streptococcus viability loss, dose response, counter-screen for streptokinase expression inhibitor project, luminescence, BacTiterGlo (AID 1915); assay type: functional, organism-based;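 note: potency for reduction of bacterial viability or growth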
[18] = ZM109 Env clade C HIV-1 fusion inhibitors, dose response, HeLa effector, CEM target cells, luciferase, cherry-pick (AID 652058); assay type: functional, cell-based
[19] = inhibitors of clade B AD8 Env fusion, dose response, cell-based, cherry-pick (AID 652062); assay type: functional;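 note: luciferase signal from cell-cell fusion driven by HIV-1 clade B AD8 Env; potency is for inhibitors of fusion seen as a drop in luminescence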
[20] = biological target: Paired box protein Pax-8 (Homo sapiens, UniProt Q06710); assay: inhibitors of PAX8-driven TPO luciferase reporter, dose response, RMG-I cells, cherry-pick (AID 687027); assay type: functional, cell-based;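 note: luciferase reporter driven by Pax8 target thyroperoxidase promoter measured by SteadyGlo luminescence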
Sequence of Paired box protein Pax-8 (Q06710 whole entry): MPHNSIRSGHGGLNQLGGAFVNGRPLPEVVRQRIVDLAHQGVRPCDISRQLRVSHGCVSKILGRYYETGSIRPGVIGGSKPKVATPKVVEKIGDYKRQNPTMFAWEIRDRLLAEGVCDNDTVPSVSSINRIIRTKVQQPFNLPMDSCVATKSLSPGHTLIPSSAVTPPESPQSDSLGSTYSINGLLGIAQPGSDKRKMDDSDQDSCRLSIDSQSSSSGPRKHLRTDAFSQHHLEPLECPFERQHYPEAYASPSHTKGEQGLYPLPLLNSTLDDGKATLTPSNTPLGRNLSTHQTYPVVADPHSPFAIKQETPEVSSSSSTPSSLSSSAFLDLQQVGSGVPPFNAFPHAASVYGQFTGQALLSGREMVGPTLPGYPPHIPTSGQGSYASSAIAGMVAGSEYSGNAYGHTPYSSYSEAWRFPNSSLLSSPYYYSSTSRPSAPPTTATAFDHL

[21] = biological target: T3, DNA repair and recombination protein RAD54-like (Homo sapiens, UniProt Q92698); assay: inhibitors of human RAD54 branch migration, confirmation, biochemical, fluorescence, cherry-picked samples, dose series (AID 651657); assay type: functional
T3 sequence (Q92698 whole entry): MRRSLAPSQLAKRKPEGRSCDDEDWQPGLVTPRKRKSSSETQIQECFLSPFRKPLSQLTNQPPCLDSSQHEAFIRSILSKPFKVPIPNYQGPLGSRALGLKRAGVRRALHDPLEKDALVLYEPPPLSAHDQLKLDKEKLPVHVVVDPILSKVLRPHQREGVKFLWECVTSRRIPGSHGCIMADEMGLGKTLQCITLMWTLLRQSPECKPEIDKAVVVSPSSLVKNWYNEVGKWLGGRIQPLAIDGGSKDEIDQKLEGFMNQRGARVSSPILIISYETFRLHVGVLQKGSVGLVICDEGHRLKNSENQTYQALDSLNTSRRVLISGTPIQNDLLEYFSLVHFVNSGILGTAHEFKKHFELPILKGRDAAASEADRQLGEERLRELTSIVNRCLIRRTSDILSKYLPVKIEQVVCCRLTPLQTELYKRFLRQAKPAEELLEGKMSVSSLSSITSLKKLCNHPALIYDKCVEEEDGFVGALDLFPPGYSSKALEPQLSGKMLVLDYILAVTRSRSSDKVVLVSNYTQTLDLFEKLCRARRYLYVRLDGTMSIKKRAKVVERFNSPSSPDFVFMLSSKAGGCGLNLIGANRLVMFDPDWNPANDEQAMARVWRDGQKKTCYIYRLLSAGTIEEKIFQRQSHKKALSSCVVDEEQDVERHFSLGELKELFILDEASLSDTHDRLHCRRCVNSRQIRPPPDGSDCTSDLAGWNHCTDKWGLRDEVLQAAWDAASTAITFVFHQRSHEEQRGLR

[22] = biological target: T4, Histone-lysine N-methyltransferase NSD2 (Homo sapiens, UniProt O96028); assay type: biochemical
T4 sequence (O96028 whole entry): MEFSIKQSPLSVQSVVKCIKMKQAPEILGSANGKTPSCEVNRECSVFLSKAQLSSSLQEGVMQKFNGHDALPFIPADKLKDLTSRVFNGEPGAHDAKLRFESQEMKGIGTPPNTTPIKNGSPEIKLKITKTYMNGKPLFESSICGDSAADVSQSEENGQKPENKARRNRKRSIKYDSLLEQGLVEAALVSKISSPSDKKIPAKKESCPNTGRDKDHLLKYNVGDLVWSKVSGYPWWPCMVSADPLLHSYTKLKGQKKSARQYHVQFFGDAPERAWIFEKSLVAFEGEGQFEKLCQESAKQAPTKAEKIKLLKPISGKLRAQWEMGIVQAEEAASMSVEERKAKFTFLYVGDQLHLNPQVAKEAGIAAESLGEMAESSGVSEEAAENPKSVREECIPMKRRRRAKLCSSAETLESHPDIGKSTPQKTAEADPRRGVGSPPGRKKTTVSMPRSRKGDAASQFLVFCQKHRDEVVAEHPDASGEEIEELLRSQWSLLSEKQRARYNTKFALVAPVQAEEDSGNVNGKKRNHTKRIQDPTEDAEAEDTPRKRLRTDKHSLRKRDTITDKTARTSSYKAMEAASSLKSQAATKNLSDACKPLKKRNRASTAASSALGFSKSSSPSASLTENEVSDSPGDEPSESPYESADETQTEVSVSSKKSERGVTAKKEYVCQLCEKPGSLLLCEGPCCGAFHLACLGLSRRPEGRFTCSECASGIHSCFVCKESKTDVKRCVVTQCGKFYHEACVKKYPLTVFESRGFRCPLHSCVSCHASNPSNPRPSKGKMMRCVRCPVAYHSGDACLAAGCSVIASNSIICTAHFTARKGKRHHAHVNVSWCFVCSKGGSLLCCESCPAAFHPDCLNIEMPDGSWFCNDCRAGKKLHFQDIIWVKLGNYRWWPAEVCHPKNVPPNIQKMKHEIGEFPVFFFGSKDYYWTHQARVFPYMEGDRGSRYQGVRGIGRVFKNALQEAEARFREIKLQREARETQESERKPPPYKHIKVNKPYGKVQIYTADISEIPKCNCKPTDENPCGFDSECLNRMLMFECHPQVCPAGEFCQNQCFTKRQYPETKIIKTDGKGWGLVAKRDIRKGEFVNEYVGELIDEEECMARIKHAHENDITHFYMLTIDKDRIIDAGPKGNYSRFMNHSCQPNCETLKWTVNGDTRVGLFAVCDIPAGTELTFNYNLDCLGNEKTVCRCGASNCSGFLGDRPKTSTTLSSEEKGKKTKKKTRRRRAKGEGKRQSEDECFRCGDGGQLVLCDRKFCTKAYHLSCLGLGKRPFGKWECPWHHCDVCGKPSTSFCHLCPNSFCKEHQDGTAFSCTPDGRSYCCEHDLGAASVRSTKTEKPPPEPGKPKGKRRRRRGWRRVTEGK

COc1ccc(C(C(=O)NC2CCCC2)N2CCc3ccccc32)cc1 (stereo unspecified)
AC50 [1]: 29.5 µM (active)

N/N=C(/Cc1nc2ccccc2[nH]1)c1ccc([N+](=O)[O-])cc1
IC50 [2]: 19 µM (active) | IC50 [3]: 6.69 µM (active) | IC50 [4]: 83.3 µM (inactive) | IC50 [5]: 3.17 µM (active)

O=C(Oc1c(CN2CCOCC2)cc(Cl)c2cccnc12)c1ccccc1Br
EC50 [6]: 135 µM (active) | EC50 [7]: 31.3 µM (active) | EC50 [8]: 3.49 µM (active) | AC50 [9]: 6.56 µM (active) | EC50 [10]: > 91.1 µM (inactive) | EC50 [11]: > 91.1 µM (inactive)

O=C(Nc1ccccc1)Nc1nnc(COc2ccccc2F)s1
IC50 [3]: 42.9 µM (inactive) | IC50 [4]: 71 µM (inactive) | IC50 [5]: 35.7 µM (inactive)

Cc1cccc(C)c1N(CC(O)Cn1c2ccccc2c2ccccc21)S(C)(=O)=O (stereo unspecified)
AC50 [12]: 17.1 µM (active) | AC50 [13]: 60.4 µM (active) | AC50 [14]: > 70 µM (inactive)

COc1ccc2c(CC(=O)Nc3ncc(C)s3)coc2c1
IC50 [15]: 1.11 µM (active) | EC50 [10]: > 91.2 µM (inactive) | EC50 [11]: > 91.2 µM (inactive)

O=C(COC(=O)CCCOc1ccc(Cl)cc1Cl)Nc1cccc(Cl)c1
IC50 [3]: 9.07 µM (active) | IC50 [4]: 83.3 µM (inactive) | IC50 [5]: 16.5 µM (inactive)

CC1CCCCN1S(=O)(=O)c1ccc(C(=O)Nc2nnc(-c3cccs3)o2)cc1 (stereo unspecified)
EC50 [6]: > 150 µM (inactive) | EC50 [16]: 2.05 µM (active) | EC50 [8]: 1.11 µM (active) | EC50 [17]: 4.49 µM (active) | AC50 [12]: 32.8 µM (active) | AC50 [13]: 35.7 µM (active) | AC50 [18]: 14.6 µM (active) | AC50 [19]: 16.6 µM (active)

O=C(O)c1cc(=O)c2c(OCC(O)COc3cccc4oc(C(=O)O)cc(=O)c34)cccc2o1 [CROMOLYN SODIUM]
AC50 [1]: 34.3 µM (active)

Nc1ncnc2c(C3OC(CO)C(O)C3O)scc12 (stereo unspecified)
AC50 [12]: 0.322 µM (active) | AC50 [13]: < 0.26 µM (active) | AC50 [18]: 2.04 µM (active) | AC50 [20]: < 0.26 µM (active) | AC50 [14]: 3.78 µM (active) | AC50 [19]: 3.45 µM (active)

Nc1ccc(C2(c3ccc(N)cc3)CN3CCC2CC3)cc1
AC50 [21]: 25.8 µM (active) | AC50 [22]: 4.41 µM (active)

NC(=O)c1cc(Cl)cn(-c2ccccc2)c1=O
AC50 [1]: 33.7 µM (active)
